# According to ChEMBL document CHEMBL5725377, “BET bromodomain inhibitors and therapeutic methods using the same” (2017):
# What was measured:
# [1] = target: T1, Bromodomain-containing protein 2 (Homo sapiens, UniProt P25440); test: (§1) FP Competitive Binding Assay (No.350): Fluorescence Polarization (FP) competitive binding studies (see above) were carried out using the FAM labeled fluorescent probe Cpd. No. 350 to determine binding affinities of representative compounds to both BD1 and BD2 of BRD2, BRD3, and BRD4 proteins. Equilibrium dissociation constants (Id) values of Cpd. […] Final Cpd. […] Kd values of Cpd.
# T1 sequence (P25440 whole entry): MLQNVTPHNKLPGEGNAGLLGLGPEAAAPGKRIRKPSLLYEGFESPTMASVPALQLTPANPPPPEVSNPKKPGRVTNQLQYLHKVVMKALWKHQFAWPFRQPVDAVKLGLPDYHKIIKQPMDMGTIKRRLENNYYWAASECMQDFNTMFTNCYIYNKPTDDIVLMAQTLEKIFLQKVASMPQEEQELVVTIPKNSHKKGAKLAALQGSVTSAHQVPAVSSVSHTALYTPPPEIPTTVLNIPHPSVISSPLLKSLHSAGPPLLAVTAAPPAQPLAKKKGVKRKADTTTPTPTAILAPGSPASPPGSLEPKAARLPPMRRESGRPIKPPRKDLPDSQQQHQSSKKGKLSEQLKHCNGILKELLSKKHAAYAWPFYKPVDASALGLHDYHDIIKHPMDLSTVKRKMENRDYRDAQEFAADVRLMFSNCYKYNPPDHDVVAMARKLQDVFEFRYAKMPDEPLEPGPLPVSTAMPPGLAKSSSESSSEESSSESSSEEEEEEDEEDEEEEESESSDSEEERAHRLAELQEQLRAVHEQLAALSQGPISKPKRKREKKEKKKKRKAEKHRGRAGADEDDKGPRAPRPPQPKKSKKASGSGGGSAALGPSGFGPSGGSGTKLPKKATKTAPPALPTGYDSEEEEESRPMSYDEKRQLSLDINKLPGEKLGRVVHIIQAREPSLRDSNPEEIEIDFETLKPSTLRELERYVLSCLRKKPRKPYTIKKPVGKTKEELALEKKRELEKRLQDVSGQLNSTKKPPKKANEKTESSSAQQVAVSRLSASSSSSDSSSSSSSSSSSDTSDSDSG
# [2] = target: T2, Bromodomain-containing protein 3 (Homo sapiens, UniProt Q15059); test: as §1
# T2 sequence (Q15059 whole entry): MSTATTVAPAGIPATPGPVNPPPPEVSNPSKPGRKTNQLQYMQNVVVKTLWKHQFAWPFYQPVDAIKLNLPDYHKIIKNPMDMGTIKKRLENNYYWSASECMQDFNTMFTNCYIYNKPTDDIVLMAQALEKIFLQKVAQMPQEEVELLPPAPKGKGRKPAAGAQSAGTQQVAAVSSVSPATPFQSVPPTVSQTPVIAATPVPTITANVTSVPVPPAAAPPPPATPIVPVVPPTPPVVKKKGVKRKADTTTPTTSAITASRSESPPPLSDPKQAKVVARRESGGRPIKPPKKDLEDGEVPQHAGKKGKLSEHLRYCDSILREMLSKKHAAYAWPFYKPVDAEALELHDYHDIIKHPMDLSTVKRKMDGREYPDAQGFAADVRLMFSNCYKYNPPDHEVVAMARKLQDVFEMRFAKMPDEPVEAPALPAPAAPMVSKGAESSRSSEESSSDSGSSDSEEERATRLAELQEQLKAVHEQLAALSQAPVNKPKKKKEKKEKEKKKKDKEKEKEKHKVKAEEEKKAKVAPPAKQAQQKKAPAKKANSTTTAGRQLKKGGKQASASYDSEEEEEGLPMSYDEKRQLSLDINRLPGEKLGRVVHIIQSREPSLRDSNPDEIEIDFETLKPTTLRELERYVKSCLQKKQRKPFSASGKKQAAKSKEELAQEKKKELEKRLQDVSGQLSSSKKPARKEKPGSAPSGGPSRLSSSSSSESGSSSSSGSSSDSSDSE
# [3] = target: Bromodomain-containing protein 4 (Homo sapiens, UniProt O60885); test: as §1
# [4] = target: T1, Bromodomain-containing protein 2; test: as §1; remark: listed apart in the source
# [5] = target: T2, Bromodomain-containing protein 3; test: as §1; remark: listed apart in the source
smiles,measurement,setting,value
COc1cc2c(cc1-c1c(C)noc1C)[nH]c1nc(C)nc(-c3cc(C(=O)NC4CCN(C)CC4)cc(C(C)(C)C)c3)c12,Ki,[1],2.2 nM
same,Ki,[2],6.3 nM
same,Ki,[3],9 nM
same,Ki,[4],5.2 nM
same,Ki,[5],1.1 nM
COc1cc2c(cc1-c1c(C)noc1C)[nH]c1nc(C)nc(-c3ccc(NC(=O)N4CCN(C5COC5)CC4)c4ccccc34)c12,Ki,[1],17 nM
same,Ki,[2],23 nM
same,Ki,[3],39 nM
same,Ki,[4],7.8 nM
same,Ki,[5],3.5 nM
COc1cc2c(cc1-c1c(C)noc1C)[nH]c1nc(C)nc(-c3ccc(NC(=O)N4CCN(C)CC4)c4ccccc34)c12,Ki,[1],4.6 nM
same,Ki,[2],7.5 nM
same,Ki,[3],11 nM
same,Ki,[4],2.6 nM
same,Ki,[5],0.82 nM
